# Columns and labels:
# [1] = target: calf thymus DNA dependent RNA polymerase fraction B (DCB) (Bos taurus, UniProt A5PJW8+G3MZY8); test: Inhibition of calf thymus DNA dependent RNA polymerase fraction B; format: biochemical; details: read-out: Inhibition % DCB
# Procedure: (§1) Polymerases, nucleic acid template nucleoside triphosphates, of which guanosine triphosphate is tritium-labelled, salt and buffer are mixed at 0° C. in a total volume of 125 μl (for herpes DNA polymerase, see F. below). The concentrations of the nucleoside triphosphates UTP (uridine triphosphate), CTP (cytidinetriphosphate), GTP (guanosinetriphosphate) and ATP (adenosinetriphosphate) were generall 400, 400, 400, and 2000 μM, respectively. The test compound is also added in various concentrations to the mixture obtained. A standard mixture without test compound is also prepared using the same amounts of the ingredients. The enzyme reaction, i.e. synthesis of nucleic acid, is started by incubating the mixture at 37° C. For influenza RNA polymerases the temperature is 33° C. The reaction is allowed to proceed for 60 minutes in the assay of influenza and Micrococcus polymerases. […] The incorporation of labelled monomer into trichloroacetic acid insoluble nucleic acid product was measured in the following way. […] After drying the discs are measured for radioactivity in a liquid scintillation counter. The difference in radioactivity between samples with and without added compound is used to calculate the inhibition of the polymerase activity. The inhibition is expressed as percentage inhibition using the radioactivity of the standard sample as basis. […]
# [2] = target: T1, E. coli DNA dependent RNA polymerase (Escherichia coli, UniProt P0A8T7+P0A8V2); test: Inhibition of E. coli DNA dependent RNA polymerase; format: biochemical
# T1 construct: purchased Sigma
# Procedure: as §1
# influenza virus (WSN) = test: Influenza virus (WSN) plaque assay on MDCK monolayers; format: cell-based, influenza (WSN Wilson Smith Neurotropic type A); details: unidentified influenza virus, read-out: Inhibition of plaque
# [3] = target: T2, reverse transcriptase from BLV (Bovine leukemia virus, UniProt P03361); test: Cell-free reverse transcriptase inhibition, BLV; format: biochemical; details: template/primer (rA)n.(dT)10, read-out: Percent inhibition
# T2 construct: Reverse transcriptase from various retroviruses have been tested in cell-free assays; made in house
# Procedure: Reverse transcriptase from various retroviruses have been tested in cell-free assays for inhibition by phosphonoformic acid and phosphonoacetic acid. The assay conditions have been described by Collaborative Research, Inc, 1365 Main Street, Waltham, Mass., USA "Assay kit for mammalian viral reverse transcriptase". BLV and VV were prepared in this laboratory and all other viruses and viral enzyme were obtained from Dr. K Nilsson, Department of Pathology, University of Uppsala and from Boehringer Mannheim, Germany. Phosphonoformic acid (PFA) and phosphonoacetic acid (PAA) were added at pH 7.2 to the reaction mixtures at the start of the reaction.
# Rauscher murine leukemia virus; RMuLV, visna virus; VV, avian myeloblastosis virus; AMV, bovine leukemia virus; BLV, baboon endogenous virus; BaEV, simian sarcoma virus; SSV.
# HTLV-III = HTLV-III replication in H9 cells; format: cell-based; details: Human immunodeficiency virus 1, 144 h
# Procedure: H9 cells constitute a human cell line that can be chronically infected with HTLV-III virus. (Science 1984; 224: 497-500). H9 cells were treated with polybrene (2 μg/ml) for 30 min. at 37° C., washed free of polybrene and infected with 2×10^8 HTLV-III virus particles per 4×10^5 H9 cells. […] The cultures were analyzed for HTLV-III reverse transcriptase activity as described above.
# Acute toxicity in mice = test: Acute toxicity in mice; design: species or system male mice of NMRI strain; details: mouse, in vivo, ip, as sodium salt, male NMRI mice
# Procedure: Phosphonoformic acid was tested for acute toxicity in mice. The compound (as its sodium salt) was given as solution i.p. in doses of 250, 500, 1000, 2000 and 4000 μmol/kg. Groups of 4 male mice of NMRI strain weighing 18.5-20.5 g were used for each dose.
# [4] = guinea pig, in vivo
# Procedure: Phosphonoformic acid and phosphonoacetic acid were used as their trisodium and disodium salts, respectively. The test substances were used in 1% solutions.
# Guinea-pigs of the Dunkin-Hartley strain of both sexes and weighing 200-300 g were used. The back of the animal was shaved and depilated with Opilca® on the day before starting the application of the solutions. The back was divided into six squares in the middle of which 30 μl of the test solutions was applied. In a given group of animals the different solutions were applied in a randomized order alternating between sites. However, the same site was used for repeated application of a given solution.
# The irritation was scored on scales of 0 to 3, each grade corresponding to the following specific criteria of irritation:
# 1=slight erythema or edema or no hair growth
# 2=moderate erythema or edema or skin discoloration
# 3=marked erythema or edema or necrosis including crust formation.
# The scoring was carried out blindly using coded solutions.
# The scores of all the applications for a given solution and time were added and the average score was calculated.
# The solvent used was a mixture of glycerol 10.0% (w/v), Tween 80 0.1% and aq sterile ad 100. All solutions were adjusted to pH 6.5 with hydrochloric acid or aqueous sodium hydroxide as required. Thirty μl of 1.0% solutions of phosphonoformic acid and phosphonoacetic acid respectively was applied twice daily during three days to each of six guinea pigs.
# [5] = design: species or system Cynomolgus monkeys; details: cynomolgus monkey, in vivo
# Procedure: Phosphonoformic acid, also denoted PFA and phosphonoacetic acid, also denoted PAA were used in the form of their trisodium and disodium salt, respectively. The following equimolar compositions of the two test compounds were used: […]
# Two adult male Cynomolgus monkeys were treated once daily for 7 days with PFA or PAA in Arlatone cream. Treatment was done both by topical application of 0.2 ml cream on an area of 3×7 cm on the upper part of the arms and by application of 0.2 ml of cream on the penis and the adjacent skin. During application of cream, the animals were lightly anaesthetized with Ketalar®, given intramuscularly. All applications were 0.2 ml each on day 6/3, 7/3, 8/3, 9/3, 10/3, 11/3 and 12/3 1978.
# T2 sequence (P03361 546-1120): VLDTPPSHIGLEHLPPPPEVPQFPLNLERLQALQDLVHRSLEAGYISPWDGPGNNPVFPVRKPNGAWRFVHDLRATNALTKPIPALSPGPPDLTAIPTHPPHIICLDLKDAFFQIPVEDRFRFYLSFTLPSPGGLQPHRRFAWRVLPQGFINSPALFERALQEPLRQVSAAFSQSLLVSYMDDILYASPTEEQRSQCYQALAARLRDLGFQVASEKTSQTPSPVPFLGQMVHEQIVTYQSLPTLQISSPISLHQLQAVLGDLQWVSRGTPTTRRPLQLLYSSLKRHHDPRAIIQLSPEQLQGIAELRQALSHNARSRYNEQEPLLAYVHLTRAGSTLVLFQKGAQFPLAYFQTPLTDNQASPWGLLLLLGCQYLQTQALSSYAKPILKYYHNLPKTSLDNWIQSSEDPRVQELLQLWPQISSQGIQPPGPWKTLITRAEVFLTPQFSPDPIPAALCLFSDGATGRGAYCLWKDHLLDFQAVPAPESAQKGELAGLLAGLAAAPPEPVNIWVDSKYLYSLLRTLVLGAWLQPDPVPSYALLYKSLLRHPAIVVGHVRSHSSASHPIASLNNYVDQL
# T1 sequence (P0A8V2 whole entry): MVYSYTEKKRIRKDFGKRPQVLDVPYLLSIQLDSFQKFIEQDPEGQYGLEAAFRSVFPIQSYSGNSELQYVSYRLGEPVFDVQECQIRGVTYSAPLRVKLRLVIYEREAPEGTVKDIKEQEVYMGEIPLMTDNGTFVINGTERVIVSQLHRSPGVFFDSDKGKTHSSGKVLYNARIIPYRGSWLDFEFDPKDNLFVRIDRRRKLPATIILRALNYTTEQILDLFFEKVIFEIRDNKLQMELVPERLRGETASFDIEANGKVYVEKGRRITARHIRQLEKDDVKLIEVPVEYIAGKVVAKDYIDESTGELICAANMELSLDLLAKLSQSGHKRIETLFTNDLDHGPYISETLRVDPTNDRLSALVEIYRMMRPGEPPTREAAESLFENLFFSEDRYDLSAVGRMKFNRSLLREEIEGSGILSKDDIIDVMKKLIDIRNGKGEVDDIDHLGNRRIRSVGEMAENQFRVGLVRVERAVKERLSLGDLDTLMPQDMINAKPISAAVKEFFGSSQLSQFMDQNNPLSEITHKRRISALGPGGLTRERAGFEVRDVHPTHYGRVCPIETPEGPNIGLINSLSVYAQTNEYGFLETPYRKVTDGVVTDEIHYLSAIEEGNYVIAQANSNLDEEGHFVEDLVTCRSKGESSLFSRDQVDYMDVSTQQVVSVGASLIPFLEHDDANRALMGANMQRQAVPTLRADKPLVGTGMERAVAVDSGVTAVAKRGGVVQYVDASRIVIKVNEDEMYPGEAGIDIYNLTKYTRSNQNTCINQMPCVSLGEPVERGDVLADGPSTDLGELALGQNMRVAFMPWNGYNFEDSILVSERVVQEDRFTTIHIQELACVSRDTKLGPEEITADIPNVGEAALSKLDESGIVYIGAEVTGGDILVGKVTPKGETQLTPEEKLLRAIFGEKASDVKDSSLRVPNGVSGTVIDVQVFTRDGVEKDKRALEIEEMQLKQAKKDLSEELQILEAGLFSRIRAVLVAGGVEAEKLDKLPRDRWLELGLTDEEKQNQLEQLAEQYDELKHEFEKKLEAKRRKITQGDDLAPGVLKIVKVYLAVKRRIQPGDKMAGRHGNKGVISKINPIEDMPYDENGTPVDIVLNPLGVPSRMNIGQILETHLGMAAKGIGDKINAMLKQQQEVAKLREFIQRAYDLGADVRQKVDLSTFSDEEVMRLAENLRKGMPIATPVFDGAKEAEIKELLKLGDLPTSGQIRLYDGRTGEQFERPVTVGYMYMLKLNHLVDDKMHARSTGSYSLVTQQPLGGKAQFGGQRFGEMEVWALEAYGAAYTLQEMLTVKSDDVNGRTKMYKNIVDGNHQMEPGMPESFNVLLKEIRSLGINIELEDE
# T1 sequence (P0A8T7 whole entry): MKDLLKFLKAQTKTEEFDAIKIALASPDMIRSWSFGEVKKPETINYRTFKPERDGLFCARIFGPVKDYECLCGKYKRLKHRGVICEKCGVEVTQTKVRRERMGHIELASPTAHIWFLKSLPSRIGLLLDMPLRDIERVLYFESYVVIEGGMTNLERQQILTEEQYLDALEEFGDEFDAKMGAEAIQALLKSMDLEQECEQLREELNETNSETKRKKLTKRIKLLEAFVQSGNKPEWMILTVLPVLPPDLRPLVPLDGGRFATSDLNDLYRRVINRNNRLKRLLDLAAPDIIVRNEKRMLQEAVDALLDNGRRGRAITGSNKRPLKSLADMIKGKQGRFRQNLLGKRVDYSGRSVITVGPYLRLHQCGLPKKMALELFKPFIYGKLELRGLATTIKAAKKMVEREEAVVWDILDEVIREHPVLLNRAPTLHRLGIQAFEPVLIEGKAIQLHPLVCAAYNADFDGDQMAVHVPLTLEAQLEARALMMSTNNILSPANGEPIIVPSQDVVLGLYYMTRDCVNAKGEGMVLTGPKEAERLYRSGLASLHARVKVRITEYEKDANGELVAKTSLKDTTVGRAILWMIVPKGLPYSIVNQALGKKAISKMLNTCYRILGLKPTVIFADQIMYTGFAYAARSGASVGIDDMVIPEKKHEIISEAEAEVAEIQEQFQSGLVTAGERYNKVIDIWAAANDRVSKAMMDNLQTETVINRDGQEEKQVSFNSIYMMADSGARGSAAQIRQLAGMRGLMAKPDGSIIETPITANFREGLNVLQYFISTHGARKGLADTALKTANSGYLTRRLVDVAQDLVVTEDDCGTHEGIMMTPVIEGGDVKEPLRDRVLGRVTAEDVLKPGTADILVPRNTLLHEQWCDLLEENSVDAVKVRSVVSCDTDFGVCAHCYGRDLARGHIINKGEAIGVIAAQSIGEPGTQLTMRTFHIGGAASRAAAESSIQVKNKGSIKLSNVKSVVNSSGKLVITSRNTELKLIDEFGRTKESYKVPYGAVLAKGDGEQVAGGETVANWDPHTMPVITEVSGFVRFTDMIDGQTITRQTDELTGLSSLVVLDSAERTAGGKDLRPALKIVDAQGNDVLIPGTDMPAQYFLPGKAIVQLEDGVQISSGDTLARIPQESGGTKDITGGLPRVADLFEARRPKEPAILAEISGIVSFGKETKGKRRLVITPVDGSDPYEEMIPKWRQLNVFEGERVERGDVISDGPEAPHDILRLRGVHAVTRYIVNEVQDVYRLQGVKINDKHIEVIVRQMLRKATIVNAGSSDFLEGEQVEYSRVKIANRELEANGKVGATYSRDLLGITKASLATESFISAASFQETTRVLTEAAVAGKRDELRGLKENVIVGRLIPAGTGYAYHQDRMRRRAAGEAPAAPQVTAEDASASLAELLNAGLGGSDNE
# T1 sequence (P0A7Z4 whole entry, further chain): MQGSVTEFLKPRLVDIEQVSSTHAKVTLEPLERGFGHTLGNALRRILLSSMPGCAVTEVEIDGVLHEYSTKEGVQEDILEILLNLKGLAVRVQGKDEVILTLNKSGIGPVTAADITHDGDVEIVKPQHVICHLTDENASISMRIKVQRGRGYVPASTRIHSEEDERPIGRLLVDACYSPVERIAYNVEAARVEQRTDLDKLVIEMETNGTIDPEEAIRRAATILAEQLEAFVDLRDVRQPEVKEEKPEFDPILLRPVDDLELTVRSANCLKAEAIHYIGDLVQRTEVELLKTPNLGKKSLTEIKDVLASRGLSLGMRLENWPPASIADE
# T1 sequence (P0A800 whole entry, further chain): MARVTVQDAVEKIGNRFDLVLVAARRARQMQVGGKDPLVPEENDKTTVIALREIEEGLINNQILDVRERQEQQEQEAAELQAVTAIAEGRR
smiles,measurement,setting,value
O=C(O)P(=O)(O)O [phosphonoformic acid],inhibition at 500 µM,[1],0%
same,inhibition at 500 µM,[2],3%
same,inhibition at 100 µM,influenza virus (WSN),10%
same,inhibition at 250 µM,influenza virus (WSN),50%
same,inhibition at 500 µM,influenza virus (WSN),95%
same,inhibition at 100 µM,[3]; 100 μM,88%
same,inhibition at 500 µM,[3]; 500 μM,93%
same,inhibition at 300 µM,"HTLV-III; 300 μM, after six days of incubation",> 95%
same,IC50,"HTLV-III; after 6 days of incubation, read-out: concentration giving 50% inhibition of HTLV-III replication",50 µM
same,LD50,Acute toxicity in mice,2000 to 4000 µmol/kg
same,skin condition after two weeks,[4],the skin is normal with hair after two weeks
same,"Result (skin irritation), area of application penis",[5],No symptoms
same,"Result (skin irritation), area of application upper arm",[5],No symptoms

# Reference: patent US4771041A, “Method for combating virus infection” (priority 1976, dated 1988)
